Data from patent US11299478B2, “2-cyanopyrimidin-4-yl carbamate or urea derivative or salt thereof, and pharmaceutical composition including same” (HANLIM PHARMACEUTICAL CO., LTD., priority 2018, dated 2022).

How the values were obtained:
Assay type in all cases: biochemical
cathepsin K = molecular target: T1, cathepsin K (Homo sapiens, UniProt P43235); experiment: Inhibitory activity assay against cathepsin K (enzyme assay); settings: Z-Phe-Arg-AMC 10 μM, enzyme 1 nM, pH 5.5, 30 minutes
T1 sequence (P43235 115-329): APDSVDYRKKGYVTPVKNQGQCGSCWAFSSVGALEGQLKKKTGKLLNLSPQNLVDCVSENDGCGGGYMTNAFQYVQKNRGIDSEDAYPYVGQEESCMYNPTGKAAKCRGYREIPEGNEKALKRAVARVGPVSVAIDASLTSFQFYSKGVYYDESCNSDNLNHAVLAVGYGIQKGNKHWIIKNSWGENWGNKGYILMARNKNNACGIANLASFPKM
In short: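 Fluorogenic assay with 1 nM cathepsin K and 10 μM Z-Phe-Arg-AMC in pH 5.5 buffer (50 mM MES, 2 mM DTT, 2.5 mM EDTA, 0.01% Triton X-100, 10% DMSO). Ten compound concentrations, 10.0 to 0.000508 μM; 30 min reaction, ex 355/em 460 nm; IC50 by 4-parameter logistic fit.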

cathepsin B = cathepsin B (Homo sapiens, UniProt P07858); experiment: Inhibitory activity assay against cathepsin B (enzyme assay); settings: Z-Arg-Arg-AMC 40 μM, enzyme 1 nM, pH 6.0, 90 minutes
In short: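 1 nM enzyme with 40 μM Z-Arg-Arg-AMC and compound (10.0 μM down to 0.000508 μM, 10 points) in pH 6.0 buffer of 50 mM MES, 5 mM DTT, 2.5 mM EDTA, 0.005% Polysorbate 20, 10% DMSO. Fluorescence (340/460 nm) read after 90 min; IC50 by 4-parameter logistic fit.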

cathepsin L = cathepsin L (Homo sapiens, UniProt P07711); experiment: Inhibitory activity assay against cathepsin L (enzyme assay); settings: Z-Phe-Arg-AMC 2 μM, enzyme 3 nM, pH 5.5, 30 minutes
In short: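 Enzyme at 3 nM with 2 μM Z-Phe-Arg-AMC in 50 mM MES pH 5.5, 2.5 mM DTT, 2.5 mM EDTA, 0.005% Polysorbate 20, 10% DMSO; 30 min reaction, AMC fluorescence 340/460 nm. Ten-point series 10.0 μM to 0.000508 μM; IC50 by 4-parameter logistic fit.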

cathepsin S = cathepsin S (Homo sapiens, UniProt P25774); experiment: Inhibitory activity assay against cathepsin S (enzyme assay); settings: Z-Phe-Arg-AMC 70 μM, enzyme 3 nM, pH 6.5, 45 minutes
In short: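 Cathepsin S (3 nM final) with Z-Phe-Arg-AMC substrate (70 μM final) in pH 6.5 buffer of 50 mM MES, 2.5 mM DTT, 1.0 mM EDTA, 0.001% BSA, 10% DMSO; compound 10.0 μM down to 0.000508 μM, 10 points. Fluorescence (ex 340/em 460 nm) after 45 min; IC50 by 4-parameter logistic fit.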

Sequence of cathepsin S (P25774 115-331, species assumed): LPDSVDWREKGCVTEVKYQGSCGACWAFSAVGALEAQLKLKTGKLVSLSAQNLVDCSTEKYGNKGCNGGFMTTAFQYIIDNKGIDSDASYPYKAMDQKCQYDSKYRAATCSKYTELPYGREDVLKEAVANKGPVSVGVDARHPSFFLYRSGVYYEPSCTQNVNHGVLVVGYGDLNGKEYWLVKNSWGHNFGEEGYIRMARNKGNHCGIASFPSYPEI
Sequence of cathepsin L (P07711 114-333, species assumed): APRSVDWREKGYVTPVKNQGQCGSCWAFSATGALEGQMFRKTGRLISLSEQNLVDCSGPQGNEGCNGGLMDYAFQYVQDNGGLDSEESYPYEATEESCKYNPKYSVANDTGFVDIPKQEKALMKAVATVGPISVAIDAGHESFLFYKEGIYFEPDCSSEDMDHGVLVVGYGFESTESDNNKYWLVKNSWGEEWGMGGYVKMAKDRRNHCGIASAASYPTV

Row | Structure (SMILES) | IC50 (cathepsin K) | IC50 (cathepsin B) | IC50 (cathepsin L) | IC50 (cathepsin S)
1 | CS(=O)(=O)c1ccc(-c2ccc(NC(=O)NC3(c4ccnc(C#N)n4)CCCCC3)cc2C(F)(F)F)cc1 [Example 162, 1-(1-(2-cyanopyrimidin-4-yl)cyclohexyl)-3-(4′-(methylsulfonyl)-2-(trifluoromethyl)-[1,1′-biphenyl]-4-yl)urea] | 8.3 nM | > 10000 nM | 6520 nM | 3950 nM
2 | CC(C)N1CCN(c2ccc(-c3ccc(CNC(=O)NC4(c5ccnc(C#N)n5)CCCCC4)cc3)cc2)CC1 [Example 181, 1-(1-(2-cyanopyrimidin-4-yl)cyclohexyl)-3-((4′-(4-isopropylpiperazin-1-yl)-[1,1′-biphenyl]-4-yl)methyl)urea] | 1.9 nM | > 10000 nM | > 10000 nM | > 10000 nM
3 | N#Cc1nccc(C2(NC(=O)OCc3ccccc3Cl)CCCCC2)n1 [Example 28, 2-chlorobenzyl (1-(2-cyanopyrimidin-4-yl)cyclohexyl)carbamate] | 35.8 nM | > 10000 nM | 8780 nM | > 10000 nM
4 | CC(C)(C)N1CCN(c2ccc(NC(=O)NC3(c4ccnc(C#N)n4)CCCCC3)cc2)CC1 [Example 143, 1-(4-(4-(tert-butyl)piperazin-1-yl)phenyl)-3-(1-(2-cyanopyrimidin-4-yl)cyclohexyl)urea] | 2.3 nM | > 10000 nM | > 10000 nM | > 10000 nM
5 | CCN1CCN(c2ccc(NC(=O)NC3(c4ccnc(C#N)n4)CCCCC3)cc2)CC1 [Example 146, 1-(1-(2-cyanopyrimidin-4-yl)cyclohexyl)-3-(4-(4-ethylpiperazin-1-yl)phenyl)urea] | 3.9 nM | > 10000 nM | > 10000 nM | > 10000 nM
6 | N#Cc1nccc(C2(NC(=O)Nc3cccc(C(F)(F)F)c3)CCCCC2)n1 [Example 89, 1-(1-(2-cyanopyrimidin-4-yl)cyclohexyl)-3-(3-(trifluoromethyl)phenyl)urea] | 3.8 nM | > 10000 nM | 6890 nM | > 10000 nM
7 | Cc1ccc(F)c(NC(=O)NC2(c3ccnc(C#N)n3)CCCCC2)c1 [Example 94, 1-(1-(2-cyanopyrimidin-4-yl)cyclohexyl)-3-(2-fluoro-5-methylphenyl)urea] | 9 nM | > 10000 nM | 1130 nM | 8240 nM
8 | COc1ccc(COC(=O)NC2(c3ccnc(C#N)n3)CCCCC2)cc1 [Example 25, 4-methoxybenzyl (1-(2-cyanopyrimidin-4-yl)cyclohexyl)carbamate] | 41 nM | > 10000 nM | > 10000 nM | > 10000 nM
9 | N#Cc1nccc(C2(NC(=O)Nc3ccc(-c4ccc(C(=O)O)cc4)c(C(F)(F)F)c3)CCCCC2)n1 [Example 163, 4′-(3-(1-(2-cyanopyrimidin-4-yl)cyclohexyl)ureido)-2′-(trifluoromethyl)-[1,1′-biphenyl]-4-carboxylic acid] | 25.2 nM | > 10000 nM | > 10000 nM | 3370 nM
10 | CS(=O)(=O)c1ccc(-c2ccc(NC(=O)NC3(c4ccnc(C#N)n4)CCCCC3)cc2)cc1F [Example 170, 1-(1-(2-cyanopyrimidin-4-yl)cyclohexyl)-3-(3′-fluoro-4′-(methylsulfonyl)-[1,1′-biphenyl]-4-yl)urea] | 39.5 nM | > 10000 nM | > 10000 nM | > 10000 nM
11 | N#Cc1nccc(C2(NC(=O)NCc3ccccc3C(F)(F)F)CCCCC2)n1 [Example 91, 1-(1-(2-cyanopyrimidin-4-yl)cyclohexyl)-3-(2-(trifluoromethyl)benzyl)urea] | 32.2 nM | > 10000 nM | 4770 nM | > 10000 nM
12 | CS(=O)(=O)c1ccc(-c2ccc(NC(=O)NC3(c4ccnc(C#N)n4)CCCCC3)cc2)cc1C(F)(F)F [Example 171, 1-(1-(2-cyanopyrimidin-4-yl)cyclohexyl)-3-(4′-(methylsulfonyl)-3′-(trifluoromethyl)-[1,1′-biphenyl]-4-yl)urea] | 24 nM | > 10000 nM | > 10000 nM | 2190 nM
13 | N#Cc1nccc(C2(NC(=O)Nc3ccc(N4CCOCC4)cc3)CCCCC2)n1 [Example 139, 1-(1-(2-cyanopyrimidin-4-yl)cyclohexyl)-3-(4-morpholinophenyl)urea] | 12.2 nM | > 10000 nM | 7030 nM | > 10000 nM
14 | N#Cc1nccc(C2(NC(=O)OCc3cccc(Cl)c3)CCCCC2)n1 [Example 16, 3-chlorobenzyl (1-(2-cyanopyrimidin-4-yl)cyclohexyl)carbamate] | 277 nM | > 10000 nM | 4610 nM | > 10000 nM
15 | N#Cc1nccc(C2(NC(=O)Nc3ccc(Oc4ccccc4)cc3)CCCC2)n1 [Example 44, 1-(1-(2-cyanopyrimidin-4-yl)cyclopentyl)-3-(4-phenoxyphenyl)urea] | 18.5 nM | > 10000 nM | > 10000 nM | > 10000 nM
16 | N#Cc1nccc(C2(NC(=O)Nc3ccc(-c4ccc(S(=O)(=O)NC5CC5)cc4)cc3)CCCCC2)n1 [Example 148, 4′-(3-(1-(2-cyanopyrimidin-4-yl)cyclohexyl)ureido)-N-cyclopropyl-[1,1′-biphenyl]-4-sulfonamide] | 16.8 nM | > 10000 nM | > 10000 nM | 8580 nM
17 | Cn1ncc2ccc(-c3ccc(NC(=O)NC4(c5ccnc(C#N)n5)CCCCC4)cc3)cc21 [Example 118, 1-(1-(2-cyanopyrimidin-4-yl)cyclohexyl)-3-(4-(1-methyl-1H-indazol-6-yl)phenyl)urea] | 16.6 nM | > 10000 nM | > 10000 nM | > 10000 nM
18 | N#Cc1nccc(C2(NC(=O)Nc3ccccc3C(F)(F)F)CCCCC2)n1 [Example 92, 1-(1-(2-cyanopyrimidin-4-yl)cyclohexyl)-3-(2-(trifluoromethyl)phenyl)urea] | 40.9 nM | > 10000 nM | > 10000 nM | > 10000 nM
19 | N#Cc1nccc(C2(NC(=O)Nc3ccc(Nc4ccccc4)cc3)CCCCC2)n1 [Example 101, 1-(1-(2-cyanopyrimidin-4-yl)cyclohexyl)-3-(4-(phenylamino)phenyl)urea] | 21.7 nM | > 10000 nM | > 10000 nM | > 10000 nM
20 | N#Cc1nccc(C2(NC(=O)NCc3ccc(F)cc3)CCCC2)n1 [Example 54, 1-(1-(2-cyanopyrimidin-4-yl)cyclopentyl)-3-(4-fluorobenzyl)urea] | 76 nM | > 10000 nM | > 10000 nM | > 10000 nM
21 | CN(C)CCOc1ccc(-c2ccc(NC(=O)NC3(c4ccnc(C#N)n4)CCCCC3)cc2)cc1 [Example 153, 1-(1-(2-cyanopyrimidin-4-yl)cyclohexyl)-3-(4′-(2-(dimethylamino)ethoxy)-[1,1′-biphenyl]-4-yl)urea] | 0.2 nM | 4800 nM | 6720 nM | > 10000 nM
22 | N#Cc1nccc(C2(NC(=O)OCc3ccccc3C(F)(F)F)CCCCC2)n1 [Example 20, 2-(trifluoromethyl)benzyl (1-(2-cyanopyrimidin-4-yl)cyclohexyl)carbamate] | 32.9 nM | > 10000 nM | 2010 nM | 9230 nM
23 | N#Cc1nccc(C2(NC(=O)NCc3ccccc3F)CCCC2)n1 [Example 40, 1-(1-(2-cyanopyrimidin-4-yl)cyclopentyl)-3-(2-fluorobenzyl)urea] | 93.3 nM | > 10000 nM | 9230 nM | > 10000 nM
24 | N#Cc1nccc(C2(NC(=O)OCc3ccccc3Br)CCCCC2)n1 [Example 19, 2-bromobenzyl (1-(2-cyanopyrimidin-4-yl)cyclohexyl)carbamate] | 18 nM | > 10000 nM | 1060 nM | 5850 nM
25 | N#Cc1nccc(C2(NC(=O)Nc3ccc(Br)c(C(F)(F)F)c3)CCCCC2)n1 [Example 133, 1-(4-bromo-3-(trifluoromethyl)phenyl)-3-(1-(2-cyanopyrimidin-4-yl)cyclohexyl)urea] | 63.7 nM | > 10000 nM | > 10000 nM | > 10000 nM
26 | COCCOCc1ccc(-c2ccc(NC(=O)NC3(c4ccnc(C#N)n4)CCCCC3)cc2)cc1 [Example 157, 1-(1-(2-cyanopyrimidin-4-yl)cyclohexyl)-3-(4′-((2-methoxyethoxy)methyl)-[1,1′-biphenyl]-4-yl)urea] | 6.4 nM | > 10000 nM | > 10000 nM | 4620 nM
